# Data as given in a melting point compilation (Tetko et al.; mined from patent text by program, amines drawn as free bases though some values may be those of a salt).
row,Compound,melting point [°C]
1,O=C(O)C1CCC(=O)N1Cc1ccccc1C(F)(F)F (stereo not given),139 to 141
2,COc1ccc(C(=CC(=O)N2CCOCC2)c2ccc(CC(=O)O)cc2)cc1OC,192 to 194
3,CC(C)(CO)Oc1ccc(-c2ccc(N3CCCCC3)cc2)cc1,158 to 160
4,C=CCn1c(=O)c([N+](=O)[O-])c(O)c2ccccc21,125 to 127
5,Cc1oc(C)c2c(=O)c3c(=O)ccc(=O)c=3c(=O)c12,> 270
6,CCc1nnc(NS(=O)(=O)c2ccc(NC(C)=O)cc2)s1,197 to 198
7,CC1=C(CN2CC(C(=O)O)C2)CCc2cc(OCCCc3ccc(F)cc3)ccc21,154 to 155
8,CCCN(CCC)C(=O)C(C)n1c(-c2ccc(Cl)cc2)nc2cccnc21 (stereo not given),96 to 99
9,CC1CCN(c2ccc(Nc3ncc4c(n3)S/C(=C/c3ccc([N+](=O)[O-])cc3)C(=O)N4)cc2)CC1,280 to 282
10,CN(C)CCC(c1ccc(NC=O)cc1)c1ncc[nH]1 (stereo not given),142 to 144
11,CCc1nnc(-c2ncc3[nH]c4cccc(OCc5ccccc5)c4c3c2COC)o1,230
12,Fc1ccc(-c2cn(CCC#Cc3ccccn3)nn2)cc1,120 to 122
13,CN(C)Cc1ccc2cc(NC(=O)c3ccc(-c4ccc(F)cc4)cc3)ccc2n1,205 to 208
14,C[C@@H]1CNC[C@H](C)N1c1ncccn1,130 to 135
15,CC(=O)N1c2ccccc2NC(=O)c2cscc21,228 to 230
16,CC(NC(=O)OC(C)(C)C)C1CCN(c2c(F)cc3c(=O)[nH]c(=O)n4c3c2CCC4C)C1 (stereo not given),123 to 125
17,Cc1csc(-c2ccc(C3=NNC(=O)CC3)cc2)n1,266 to 267
18,O=c1oc2c(c(O)c1C(c1ccccc1)C1CC1)CCCCCC2CC1CCOC1 (stereo not given),80 to 84
19,O=S(=O)(Nc1ccc(Cl)c(Cl)c1)c1cc(S(=O)(=O)Nc2ccc(Cl)c(Cl)c2)c2cc(O)ccc2c1,158 to 160
20,COc1ccc(CCn2cnc3oc(C)c(C)c3c2=N)cc1,125
21,N#CCCNC(=O)c1cncc(-c2cccc3nn(Cc4cccc(C(F)(F)F)c4)cc23)c1,192 to 193
22,C[C@H]([C@](O)(Cn1cncn1)c1ccc(F)cc1F)S(=O)(=O)N1CCN(c2ccc(-n3cnn(CC(F)(F)F)c3=O)cc2)CC1,237 to 239
23,O=C1NCCc2c(-c3ccc(Cl)c(C(F)(F)F)c3)[nH]c3cccc1c23,118 to 119
24,CCN1C(=O)C(C)(C)c2cc(-c3nc4ccccc4[nH]3)ccc21,263 to 265
25,Cc1c(-c2ccc(O)cc2)n(Cc2ccc(OCCCN3CCCCC3)cc2)c2ccc(O)cc12,125 to 130

row,Compound,melting point [°C]
1,COC(=O)C(=O)C1=C(O)c2ccsc2SC1,53 to 56
2,CCOC(=O)Nc1c(OC)cc(Cc2cnc(N)nc2N)cc1OC,192 to 193
3,CCc1nn(C2CCCC2)c2cc(C(=O)NCCC(=O)NO)ccc12,166 to 169
4,O=C1c2ccccc2C(=O)N1Cc1cc2cc(Cl)cc(-c3ccccc3)c2o1,163 to 166
5,COc1ccc(S(=O)(=O)n2ccc3cccc(-c4ccc(F)cc4)c32)cc1,181 to 182
6,COc1cc2c(cc1OC)CN(CC(O)COc1ccc(N)cc1)CC2 (stereo not given),106
7,COC1=CC(=O)c2cc(O)ccc2C1=O,264 to 267
8,O=C(CN1CCC(Cc2ccc(F)cc2)CC1)Nc1ccc2[nH]c(=O)oc2c1,228 to 231
9,Nc1c(I)cc(Cl)cc1[N+](=O)[O-],134 to 135
10,COc1ccccc1NC(=O)Nc1nc(Oc2ccc3ccccc3c2)nc(N(CCC(=O)O)Cc2ccc(C(F)(F)F)cc2C(F)(F)F)n1,192
11,CCOC(=O)c1ccc(C=Cc2ccc(OC)cc2)cc1,191 to 192
12,CCN(C)c1nsc(NC(=O)NC)c1C#N,175
13,CC(NC(=O)OC(C)(C)C)C(=O)NC(C)C(=O)Nc1ccc2c(Cl)c(OCCBr)oc(=O)c2c1 (stereo not given),147 to 151
14,COc1ccc(CNC(=O)c2nccnc2N)cc1,93 to 95
15,Nc1nc2ccccc2c2c1nc(CCCOc1ccccc1)n2CCCNC(=O)c1ccc(Br)cc1,186 to 187
16,CCOC(=O)c1cccn2c(C(=O)OCC)c(Cl)nc12,105 to 106
17,CCCCCCCCCCCCCCC(=O)NCCCN(C)C,46 to 48
18,COc1cc(S(=O)(=O)c2ccncc2)ccc1[N+](=O)[O-],123 to 124
19,O=S(=O)(CCO)Cc1ccc(CS(=O)(=O)CCO)cc1,210 to 212
20,CC1CN(C(=O)OC(C)(C)C)CCC1(O)c1cc(C(F)(F)F)cc2ccoc12 (stereo not given),133 to 136
21,CC=C(Cl)C(Cl)CC(O)(Cn1cncn1)C1(Cl)CC1 (stereo not given),79 to 80
22,CC(=O)OCC1Cc2cc(S(=O)(=O)N(C)C)c(Cl)c(Cl)c2O1 (stereo not given),159 to 160
23,FC(F)(F)c1nc2cc(Cl)c(Cl)cc2nc1-c1nc2ccccc2o1,157 to 158
24,Cc1ccc(C(O)c2ccc3noc(-c4cccc(Cl)c4)c3c2)cc1 (stereo not given),225
25,CN1C(=O)C(C(=O)Nc2ccc(Oc3ccc(C(F)(F)F)cn3)cc2)C(=O)N(C)C1=S,156 to 158

row,Compound,melting point [°C]
1,CNC(=O)n1cnc(C)c1Cl,94.1 to 94.4
2,"COc1ccc2c(c1)C13CCN(C)C(C2)C1(O)CCOC3 (single isomer, unassigned; (+))",108 to 110
3,CC(C)CN1C(=O)c2cnc(-c3ccccc3)nc2N(C(=O)CN2CCCCC2)c2ccccc21,193 to 194
4,CCOC(=O)C1=C(C)NC(c2csc(NC(C)=O)n2)=NC1c1ccc(F)cc1Cl (stereo not given),220 to 223
5,O=C(NCCO)/C(=C/c1ccc(C2CC2)cc1)NC(=O)c1ccc(OCCc2ccc3c(c2)OCO3)cc1,113 to 115
6,CC(=O)c1sc(N2CCN(CC3CC3)C2=O)nc1C,103 to 104
7,O=[N+]([O-])c1cccc(-c2csc(Nc3ccccc3C(F)(F)F)n2)c1,182
8,Nc1ncnc2c1ncn2OCCOCP(=O)(O)O,241 to 244
9,COC(=O)COc1ccc(OC/C=C(/c2ccc(I)cc2)c2ccc3oc(C)cc3c2)cc1C,121 to 128
10,CS(=O)(=O)c1ccc(-c2cnn(CC(F)(F)F)c(=O)c2OCC2CC2)cc1,133 to 135
11,Cc1nc(N2CCN(Cc3ccccc3)C2=NC#N)sc1C(=O)NCc1ccccc1,226 to 228
12,CC(C)SC(=S)N1Cc2[nH]c3ccccc3c2CC1C(=O)O (stereo not given),188 to 190
13,O=C(O)c1c(Cl)ccc([N+](=O)[O-])c1Nc1ccc(OCc2ccccc2)cc1,172 to 174
14,Cc1cc(-c2ccc(C(F)(F)F)cc2)nc(-c2cccc(-c3ccc(S(N)(=O)=O)s3)c2)c1,211
15,Cc1cccc(NC(=O)N2CCN(CC(=O)N3CC=C(c4cccc(C(F)(F)F)c4)n4ncc(C#N)c43)CC2)c1,138 to 140
16,CC(CCN(C)c1ccccc1)=NO,46 to 49
17,O=CNCC=C(c1ccc(-c2ccccc2)cc1)c1ccc(-c2ccccc2)cc1,171 to 173
18,COC(=O)CN(Cc1ccccc1N)S(=O)(=O)c1ccc(OC)cc1,100 to 102
19,CC1(C)COCC(C)(C)N1N=O,47
20,Cc1sc(C)c(NC(=S)Nc2c(Cl)cccc2Cl)c1N,143 to 148
21,CNC(Cc1ccc(C(F)(F)F)cc1N)c1sccc1C (stereo not given),52 to 54
22,c1ccc(Oc2ccc(OCn3cnc4ccccc43)cc2)cc1,112
23,Clc1ccc2nc(NC3=NCCN3)[nH]c2c1,241 to 242
24,COC(=O)c1cc(Oc2ccc(F)cc2F)ncc1N,102 to 104
25,CC(Br)c1ccc2c(=O)c3ccccc3ccc2c1 (stereo not given),93 to 95

row,Compound,melting point [°C]
1,Clc1ccc(C(OCCN2CCOCC2)(c2ccc(Cl)cc2)c2ccc(Cl)cc2)cc1,151 to 153
2,COC(=O)NCc1cccc(-c2ccccc2)c1C,91 to 94
3,CCCc1c(OCCC2Cc3cc(C(=O)CCC(=O)O)ccc3O2)ccc(C(C)=O)c1O (stereo not given),156 to 158
4,CCOC(=O)c1ccc(CCc2coc(N)c2C#N)cc1,195 to 197
5,O=[N+]([O-])c1cc(CS)cc(O)c1O,179 to 185
6,COc1ccc(S(=O)(=O)C(C)(Cc2cccnc2)C(=O)NO)cc1 (stereo not given),98
7,Cc1ccccc1NC(=O)Nc1ccc(-c2c(Cc3ccccc3)sc3ncnc(N)c23)cc1,245 to 248
8,CCCc1c(/C=C/c2cc(OC)cc(OC)c2)nc2ccc(C(=O)O)cn2c1=O,268 to 270
9,CCCC(=O)NC1C=CC(CO)C1 (stereo not given),71 to 72
10,Cc1ccc(C)c(OC(C)(C)C(=O)O)c1,107 to 109
11,O=C(NC1N=C(c2ccccc2F)c2ccccc2NC1=O)c1ccccc1 (racemic),243 to 244
12,CC12CCC3C(CCC4CC(O)CCC43C)C1CCC2S (stereo not given),169 to 170
13,CCOC(=O)COc1cc(C)sc1C#N,58
14,CN1C(O)=C(C(=O)NCc2ccccc2)c2ccsc2S1(=O)=O,176 to 177
15,Cc1cc(=O)[nH]c2ccc(OCCCN3CCN(Cc4ccc(C(C)(C)C)cc4)CC3)cc12,171 to 172
16,CC(C)(C)OC(=O)N1CCO[C@@H](c2ccc(Br)cc2)C1,97.2
17,CC1=NN(C)C(=O)C1C(=O)Nc1ccccc1 (stereo not given),231 to 233
18,Cc1ccc(-n2c(-c3ccccc3)c(Br)c(Br)c2-c2ccccc2)cc1,227 to 228
19,COc1cc(C=C2CCCOC2CN)c([N+](=O)[O-])cc1OC (stereo not given),89 to 96
20,CCCOc1ccccc1-c1nc2sccc2c(=O)[nH]1,115 to 117
21,O=C(CCC(=O)N(CCO)CCO)c1ccccc1,98
22,O=C(CCc1ccccc1)Nc1cc(-c2nnc(CCc3cccc(F)c3)o2)ccn1,171 to 172
23,CCCCCC(CC(=O)Nc1cc(C(N)=O)ccc1C(C)(C)C)c1ccc(C(=O)O)cc1OC (stereo not given),204 to 206
24,O=C1CCCc2nc3ccccc3c(NCc3ccccc3C(F)(F)F)c21,167
25,CCCCCCCNC(=O)N(C)c1cccc(-c2ccc(CCC(=O)O)cc2OCCC(C)C)c1,60 to 62
